Tests used:
[1] = biological target: T1, Multidrug and toxin extrusion protein 1 (Mus musculus, UniProt Q8K0H1); experiment: Inhibition of mouse Mate1 transfected in HEK293 cells assessed as uptake of [14C]-TEA preincubated for 15 mins by liquid scintillation counting analysis; format: cell-based
T1 sequence (Q8K0H1 whole entry): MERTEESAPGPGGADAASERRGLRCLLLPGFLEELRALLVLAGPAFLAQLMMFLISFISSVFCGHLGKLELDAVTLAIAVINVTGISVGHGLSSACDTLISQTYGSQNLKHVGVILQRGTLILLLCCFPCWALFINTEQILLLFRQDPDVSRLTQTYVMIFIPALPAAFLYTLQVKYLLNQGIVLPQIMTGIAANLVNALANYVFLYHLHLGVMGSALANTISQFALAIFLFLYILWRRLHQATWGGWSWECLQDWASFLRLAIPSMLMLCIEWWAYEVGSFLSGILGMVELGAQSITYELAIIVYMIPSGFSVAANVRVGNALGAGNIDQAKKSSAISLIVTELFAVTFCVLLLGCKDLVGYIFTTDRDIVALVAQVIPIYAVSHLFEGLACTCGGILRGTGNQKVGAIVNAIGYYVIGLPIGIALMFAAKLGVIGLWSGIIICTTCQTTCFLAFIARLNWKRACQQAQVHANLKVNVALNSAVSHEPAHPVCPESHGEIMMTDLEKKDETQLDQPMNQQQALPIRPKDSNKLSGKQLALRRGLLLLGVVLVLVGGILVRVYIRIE

Plasma [2] = experiment: Unbound plasma concentration in ddY mouse at 5 mg/kg; format: ADME, organism-based; set-up: dose 5 mg/kg; details: in vivo
[3] = biological target: T2, Solute carrier family 22 member 1 (Mus musculus, UniProt O08966); experiment: Inhibition of mouse Oct1 transfected in HEK293 cells assessed as uptake of [14C]-TEA preincubated for 15 mins by liquid scintillation counting analysis; format: cell-based
T2 sequence (O08966 whole entry): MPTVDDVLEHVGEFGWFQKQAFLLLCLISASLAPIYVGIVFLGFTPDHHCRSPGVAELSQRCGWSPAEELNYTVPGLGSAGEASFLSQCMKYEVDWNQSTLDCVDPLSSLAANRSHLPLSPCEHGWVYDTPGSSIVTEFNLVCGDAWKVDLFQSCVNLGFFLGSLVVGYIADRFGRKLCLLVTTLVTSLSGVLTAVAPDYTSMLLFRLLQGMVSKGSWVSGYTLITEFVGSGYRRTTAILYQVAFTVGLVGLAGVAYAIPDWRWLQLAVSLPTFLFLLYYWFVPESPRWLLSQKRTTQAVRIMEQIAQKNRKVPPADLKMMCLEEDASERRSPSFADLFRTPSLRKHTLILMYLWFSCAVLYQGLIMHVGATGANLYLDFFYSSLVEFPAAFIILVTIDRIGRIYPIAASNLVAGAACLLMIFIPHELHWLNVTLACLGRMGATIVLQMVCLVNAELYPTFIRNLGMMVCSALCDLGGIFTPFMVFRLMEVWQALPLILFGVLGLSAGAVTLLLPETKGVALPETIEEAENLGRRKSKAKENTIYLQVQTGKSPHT

Plasma [4] = experiment: Plasma concentration in ddY mouse at 5 mg/kg; format: ADME, organism-based; set-up: dose 5 mg/kg; details: in vivo

Cp(f) (Plasma [2]): 0.3 µM | Ki [3]: 3.6 µM | concentration (Plasma [4]): 3.7 µM
Structure (SMILES): CCc1nc(N)nc(N)c1-c1ccc(Cl)cc1 [PYRIMETHAMINE]
Ki [1]: 0.145 µM
